Active and inactive are the calls of the source. The rule behind the calls is not given here.
Test system: CCRIS mutagenicity, Ames/micronucleus/aberration tests
Assay: CCRIS mutagenicity studies
[1] = Test System: AMES SALMONELLA TYPHIMURIUM, Strain/Indicator: TA100, Metabolic Activation: HAMSTER, LIVER, S-9, AROCLOR 1254 (10%), Method: PREINCUBATION
[2] = Test System: AMES SALMONELLA TYPHIMURIUM, Strain/Indicator: TA100, Metabolic Activation: NONE, Method: PREINCUBATION
[3] = Test System: AMES SALMONELLA TYPHIMURIUM, Strain/Indicator: TA100, Metabolic Activation: RAT, LIVER, S-9, AROCLOR 1254 (10%), Method: PREINCUBATION
[4] = Test System: AMES SALMONELLA TYPHIMURIUM, Strain/Indicator: TA1535, Metabolic Activation: HAMSTER, LIVER, S-9, AROCLOR 1254 (10%), Method: PREINCUBATION
[5] = Test System: AMES SALMONELLA TYPHIMURIUM, Strain/Indicator: TA1535, Metabolic Activation: NONE, Method: PREINCUBATION
[6] = Test System: AMES SALMONELLA TYPHIMURIUM, Strain/Indicator: TA1535, Metabolic Activation: RAT, LIVER, S-9, AROCLOR 1254 (10%), Method: PREINCUBATION
[7] = Test System: AMES SALMONELLA TYPHIMURIUM, Strain/Indicator: TA98, Metabolic Activation: NONE, Method: PREINCUBATION
[8] = Test System: AMES SALMONELLA TYPHIMURIUM, Strain/Indicator: TA98, Metabolic Activation: NONE, Method: STANDARD PLATE
[9] = Test System: AMES SALMONELLA TYPHIMURIUM, Strain/Indicator: TA100, Metabolic Activation: NONE, Method: STANDARD PLATE
[10] = Test System: AMES SALMONELLA TYPHIMURIUM, Strain/Indicator: TA102, Metabolic Activation: NONE, Method: STANDARD PLATE

In the case of `C/C=C(\C)C=O`, the mutagenic call (Test System: MOUSE LYMPHOMA, Strain/Indicator: L5178Y (TK+/TK-), Metabolic Activation: NONE, Method: SUSPENSION/PLATE) is reported as “active; positive. reevaluation of results: inconclusive” and the mutagenic call (Test System: MOUSE LYMPHOMA, Strain/Indicator: L5178Y (TK+/TK-), Metabolic Activation: RAT, LIVER, S-9, AROCLOR 1254, Method: SUSPENSION/PLATE) is reported as “inactive; negative. reevaluation of results: negative”.
`C(CCOCC1CO1)COCC1CO1` (stereo not drawn) was tested, and the mutagenic call [1] was “active; positive”, the mutagenic call [2] was “active; positive” and the mutagenic call [3] was “active; positive”. The mutagenic call [4] was “active; positive”, the mutagenic call [5] was “active; positive” and the mutagenic call [6] was “active; positive”.
With `Cc1ccc(NC2OC[C@@H](O)[C@@H](O)[C@@H]2O)cc1` (stereo partly drawn) the mutagenic call (Test System: AMES SALMONELLA TYPHIMURIUM, Strain/Indicator: TA100, Metabolic Activation: NONE, Method: LIQUID INCUBATION) was “active; positive”.
`CC(C)=CCC/C(C)=C/C=O` was tested, and the mutagenic call (Test System: AMES SALMONELLA TYPHIMURIUM, Strain/Indicator: TA97A, Metabolic Activation: NONE, Method: STANDARD PLATE) was “inactive; negative”, the mutagenic call (Test System: AMES SALMONELLA TYPHIMURIUM, Strain/Indicator: TA97A, Metabolic Activation: RAT LIVER S-9, AROCLOR 1254, Method: STANDARD PLATE) was “inactive; negative” and the mutagenic call (Test System: AMES SALMONELLA TYPHIMURIUM, Strain/Indicator: TA98, Metabolic Activation: HAMSTER, LIVER, S-9, AROCLOR 1254 (10%), Method: PREINCUBATION) was “inactive; negative”. For the same molecule, the mutagenic call [7] was “inactive; negative”, the mutagenic call [8] was “inactive; negative” and the mutagenic call (Test System: AMES SALMONELLA TYPHIMURIUM, Strain/Indicator: TA98, Metabolic Activation: RAT LIVER S-9, AROCLOR 1254, Method: STANDARD PLATE) was “inactive; negative”. The mutagenic call (Test System: AMES SALMONELLA TYPHIMURIUM, Strain/Indicator: TA98, Metabolic Activation: RAT, LIVER, S-9, AROCLOR 1254 (10%), Method: PREINCUBATION) was “inactive; negative”, the mutagenic call [1] was “inactive; negative” and the mutagenic call [2] was “inactive; negative”. For the same molecule, the mutagenic call [9] was “inactive; negative”, the mutagenic call (Test System: AMES SALMONELLA TYPHIMURIUM, Strain/Indicator: TA100, Metabolic Activation: RAT LIVER S-9, AROCLOR 1254, Method: STANDARD PLATE) was “inactive; negative” and the mutagenic call [3] was “inactive; negative”. For the same molecule, the mutagenic call [10] was “inactive; negative”, the mutagenic call (Test System: AMES SALMONELLA TYPHIMURIUM, Strain/Indicator: TA102, Metabolic Activation: RAT LIVER S-9, AROCLOR 1254, Method: STANDARD PLATE) was “inactive; negative” and the mutagenic call [4] was “inactive; negative”. The mutagenic call [5] was “inactive; negative”, the mutagenic call [6] was “inactive; negative” and the mutagenic call (Test System: AMES SALMONELLA TYPHIMURIUM, Strain/Indicator: TA1537, Metabolic Activation: HAMSTER, LIVER, S-9, AROCLOR 1254 (10%), Method: PREINCUBATION) was “inactive; negative”. The mutagenic call (Test System: AMES SALMONELLA TYPHIMURIUM, Strain/Indicator: TA1537, Metabolic Activation: NONE, Method: PREINCUBATION) was “inactive; negative” and the mutagenic call (Test System: AMES SALMONELLA TYPHIMURIUM, Strain/Indicator: TA1537, Metabolic Activation: RAT, LIVER, S-9, AROCLOR 1254 (10%), Method: PREINCUBATION) was “inactive; negative”.
For `O[C@H]1[C@@H]2O[C@@H]2c2c(ccc3cc4ccc5ccccc5c4nc23)[C@@H]1O`, the mutagenic call [7] was “active; positive”, the mutagenic call [2] was “active; positive” and the mutagenic call (Test System: CHINESE HAMSTER V-79, Strain/Indicator: V-79/8-AZAGUANINE, Metabolic Activation: NONE, Method: STANDARD PLATE) was “active; positive”.
For `Cc1nc2ccccc2s1`, the mutagenic call (Test System: AMES SALMONELLA TYPHIMURIUM, Strain/Indicator: TA98, Metabolic Activation: HAMSTER, LIVER, S-9, AROCLOR 1254, Method: STANDARD PLATE) was “inactive; negative”, the mutagenic call [8] was “inactive; negative” and the mutagenic call (Test System: AMES SALMONELLA TYPHIMURIUM, Strain/Indicator: TA98, Metabolic Activation: RAT, LIVER, S-9, AROCLOR 1254, Method: STANDARD PLATE) was “inactive; negative”. The mutagenic call (Test System: AMES SALMONELLA TYPHIMURIUM, Strain/Indicator: TA100, Metabolic Activation: HAMSTER, LIVER, S-9, AROCLOR 1254, Method: STANDARD PLATE) was “inactive; negative”, the mutagenic call [9] was “inactive; negative” and the mutagenic call (Test System: AMES SALMONELLA TYPHIMURIUM, Strain/Indicator: TA100, Metabolic Activation: RAT, LIVER, S-9, AROCLOR 1254, Method: STANDARD PLATE) was “inactive; negative”. The mutagenic call (Test System: AMES SALMONELLA TYPHIMURIUM, Strain/Indicator: TA102, Metabolic Activation: HAMSTER, LIVER, S-9, AROCLOR 1254, Method: STANDARD PLATE) was “inactive; negative”, the mutagenic call [10] was “inactive; negative” and the mutagenic call (Test System: AMES SALMONELLA TYPHIMURIUM, Strain/Indicator: TA102, Metabolic Activation: RAT, LIVER, S-9, AROCLOR 1254, Method: STANDARD PLATE) was “inactive; negative”. For the same molecule, the mutagenic call (Test System: AMES SALMONELLA TYPHIMURIUM, Strain/Indicator: TA1535, Metabolic Activation: HAMSTER, LIVER, S-9, AROCLOR 1254, Method: STANDARD PLATE) was “inactive; negative”, the mutagenic call (Test System: AMES SALMONELLA TYPHIMURIUM, Strain/Indicator: TA1535, Metabolic Activation: NONE, Method: STANDARD PLATE) was “inactive; negative” and the mutagenic call (Test System: AMES SALMONELLA TYPHIMURIUM, Strain/Indicator: TA1535, Metabolic Activation: RAT, LIVER, S-9, AROCLOR 1254, Method: STANDARD PLATE) was “inactive; negative”. The mutagenic call (Test System: AMES SALMONELLA TYPHIMURIUM, Strain/Indicator: TA1537, Metabolic Activation: HAMSTER, LIVER, S-9, AROCLOR 1254, Method: STANDARD PLATE) was “inactive; negative”, the mutagenic call (Test System: AMES SALMONELLA TYPHIMURIUM, Strain/Indicator: TA1537, Metabolic Activation: NONE, Method: STANDARD PLATE) was “inactive; negative” and the mutagenic call (Test System: AMES SALMONELLA TYPHIMURIUM, Strain/Indicator: TA1537, Metabolic Activation: RAT, LIVER, S-9, AROCLOR 1254, Method: STANDARD PLATE) was “inactive; negative”. For the same molecule, the mutagenic call (Test System: Mouse lymphoma, Strain/Indicator: L5178Y (tk+/tk-), Metabolic Activation: None, Method: Suspension/plate) was “active; positive” and the mutagenic call (Test System: Mouse lymphoma, Strain/Indicator: L5178Y (tk+/tk-), Metabolic Activation: Rat, Liver, S-9, Aroclor 1254, Method: Suspension/plate) was “inactive; negative”.
For `Nc1cccc2c1Cc1ccccc1-2`, the mutagenic call (Test System: AMES SALMONELLA TYPHIMURIUM, Strain/Indicator: TA98, Metabolic Activation: RAT, LIVER, S-9, AROCLOR 1254 (2 OR 4%), Method: STANDARD PLATE) was “active; positive”, the mutagenic call (Test System: AMES SALMONELLA TYPHIMURIUM, Strain/Indicator: TA100, Metabolic Activation: RAT, LIVER, S-9, AROCLOR 1254 (4%), Method: STANDARD PLATE) was “active; positive” and the mutagenic call (Test System: AMES SALMONELLA TYPHIMURIUM, Strain/Indicator: TA1535, Metabolic Activation: RAT, LIVER, S-9, AROCLOR 1254 (4%), Method: STANDARD PLATE) was “inactive; negative”. The mutagenic call (Test System: AMES SALMONELLA TYPHIMURIUM, Strain/Indicator: TA1537, Metabolic Activation: RAT, LIVER, S-9, AROCLOR 1254 (4%), Method: STANDARD PLATE) was “active; positive”.

— PubChem BioAssay AID1259407 (Chemical Carcinogenesis Research Information System (CCRIS), 2018)
